Laboratory results published in ChEMBL document CHEMBL3734734, “Synthesis and antibacterial activity of trivalent ultrashort Arg-Trp-based antimicrobial peptides (AMPs)” (2015).
≈ marks a conversion by molar mass, not a printed value.

Key:
Type in all cases: functional
[1] = tested on: Staphylococcus aureus; assay: Antibacterial activity against methicillin-resistant Staphylococcus aureus ATCC 43300 after 16 hrs by microdilution assay; conditions: ATCC 43300, 16 h
[2] = tested on: Staphylococcus aureus; assay: Antibacterial activity against Staphylococcus aureus DSM 20231 after 16 hrs by microdilution assay; conditions: DSM 20231, 16 h
[3] = tested on: Acinetobacter baumannii; assay: Antibacterial activity against Acinetobacter baumannii DSM 30007 after 16 hrs by microdilution assay; conditions: DSM 30007, 16 h
[4] = tested on: Escherichia coli; assay: Antibacterial activity against Escherichia coli DSM 30083 after 16 hrs by microdilution assay; conditions: DSM 30083 = JCM 1649 = ATCC 11775, 16 h
[5] = tested on: Bacillus subtilis; assay: Antibacterial activity against Bacillus subtilis 168 after 16 hrs by microdilution assay; conditions: subsp. subtilis str. 168, 16 h

Molecule | MIC [1] [µM] | MIC [2] [µM] | MIC [3] [µM] | MIC [4] [µM] | MIC [5] [µM]
N=C(N)NCCC[C@H](NC(=O)[C@H](Cc1c[nH]c2ccccc12)NCc1cn(Cc2cc(Cn3cc(CN[C@@H](Cc4c[nH]c5ccccc45)C(=O)N[C@@H](CCCNC(=N)N)C(=O)O)nn3)cc(Cn3cc(CN[C@@H](Cc4c[nH]c5ccccc45)C(=O)N[C@@H](CCCNC(=N)N)C(=O)O)nn3)c2)nn1)C(=O)O | 15 (≈ 21.6 µg/mL) | 30 (≈ 43.2 µg/mL) | 60 (≈ 86.3 µg/mL) | 60 (≈ 86.3 µg/mL) | 7.6 (≈ 10.9 µg/mL)
N=C(N)NCCC[C@H](NC(=O)[C@H](Cc1c[nH]c2ccccc12)NC(=O)[C@H](CCCNC(=N)N)NCc1cn(Cc2cc(Cn3cc(CN[C@@H](CCCNC(=N)N)C(=O)N[C@@H](Cc4c[nH]c5ccccc45)C(=O)N[C@@H](CCCNC(=N)N)C(=O)O)nn3)cc(Cn3cc(CN[C@@H](CCCNC(=N)N)C(=O)N[C@@H](Cc4c[nH]c5ccccc45)C(=O)N[C@@H](CCCNC(=N)N)C(=O)O)nn3)c2)nn1)C(=O)O | 13 (≈ 24.8 µg/mL) | 27 (≈ 51.5 µg/mL) | 54 (≈ 103 µg/mL) | 13 (≈ 24.8 µg/mL) | 6 (≈ 11.4 µg/mL)
CCc1c(Cn2cc(CN[C@@H](CCCNC(=N)N)C(=O)N[C@@H](Cc3c[nH]c4ccccc34)C(=O)N[C@@H](CCCNC(=N)N)C(=O)O)nn2)c(CC)c(Cn2cc(CN[C@@H](CCCNC(=N)N)C(=O)N[C@@H](Cc3c[nH]c4ccccc34)C(=O)N[C@@H](CCCNC(=N)N)C(=O)O)nn2)c(CC)c1Cn1cc(CN[C@@H](CCCNC(=N)N)C(=O)N[C@@H](Cc2c[nH]c3ccccc23)C(=O)N[C@@H](CCCNC(=N)N)C(=O)O)nn1 | 13 (≈ 25.9 µg/mL) | 13 (≈ 25.9 µg/mL) | 26 (≈ 51.8 µg/mL) | 13 (≈ 25.9 µg/mL) | 3 (≈ 5.97 µg/mL)
N=C(N)NCCC[C@H](NC(=O)[C@H](Cc1c[nH]c2ccccc12)NC(=O)[C@@H](N)CCCNC(=N)N)C(=O)NCc1cn(Cc2ccccc2)nn1 | 70 (≈ 48.1 µg/mL) | > 100 | > 100 | > 100 | 35 (≈ 24 µg/mL)
CCc1c(Cn2cc(CN[C@@H](Cc3c[nH]c4ccccc34)C(=O)N[C@@H](CCCNC(=N)N)C(=O)O)nn2)c(CC)c(Cn2cc(CN[C@@H](Cc3c[nH]c4ccccc34)C(=O)N[C@@H](CCCNC(=N)N)C(=O)O)nn2)c(CC)c1Cn1cc(CN[C@@H](Cc2c[nH]c3ccccc23)C(=O)N[C@@H](CCCNC(=N)N)C(=O)O)nn1 | 7.3 (≈ 11.1 µg/mL) | 15 (≈ 22.8 µg/mL) | 15 (≈ 22.8 µg/mL) | 15 (≈ 22.8 µg/mL) | 2.2 (≈ 3.35 µg/mL)
N=C(N)NCCC[C@H](NCc1cn(Cc2cc(Cn3cc(CN[C@@H](CCCNC(=N)N)C(=O)N[C@@H](Cc4c[nH]c5ccccc45)C(=O)O)nn3)cc(Cn3cc(CN[C@@H](CCCNC(=N)N)C(=O)N[C@@H](Cc4c[nH]c5ccccc45)C(=O)O)nn3)c2)nn1)C(=O)N[C@@H](Cc1c[nH]c2ccccc12)C(=O)O | 15 (≈ 21.6 µg/mL) | 30 (≈ 43.2 µg/mL) | 30 (≈ 43.2 µg/mL) | 60 (≈ 86.3 µg/mL) | 3.8 (≈ 5.47 µg/mL)
CCc1c(Cn2cc(CN[C@@H](CCCNC(=N)N)C(=O)N[C@@H](Cc3c[nH]c4ccccc34)C(=O)O)nn2)c(CC)c(Cn2cc(CN[C@@H](CCCNC(=N)N)C(=O)N[C@@H](Cc3c[nH]c4ccccc34)C(=O)O)nn2)c(CC)c1Cn1cc(CN[C@@H](CCCNC(=N)N)C(=O)N[C@@H](Cc2c[nH]c3ccccc23)C(=O)O)nn1 | 7.3 (≈ 11.1 µg/mL) | 7.3 (≈ 11.1 µg/mL) | 15 (≈ 22.8 µg/mL) | 60 (≈ 91.4 µg/mL) | 1.8 (≈ 2.74 µg/mL)
CCc1c(Cn2cc(CN[C@H](Cc3c[nH]c4ccccc34)C(=O)N[C@@H](CCCNC(=N)N)C(=O)N[C@H](Cc3c[nH]c4ccccc34)C(=O)O)nn2)c(CC)c(Cn2cc(CN[C@H](Cc3c[nH]c4ccccc34)C(=O)N[C@@H](CCCNC(=N)N)C(=O)N[C@H](Cc3c[nH]c4ccccc34)C(=O)O)nn2)c(CC)c1Cn1cc(CN[C@H](Cc2c[nH]c3ccccc23)C(=O)N[C@@H](CCCNC(=N)N)C(=O)N[C@H](Cc2c[nH]c3ccccc23)C(=O)O)nn1 (stereo in doubt) | 2 (≈ 4.16 µg/mL) | 4 (≈ 8.33 µg/mL) | 32 (≈ 66.6 µg/mL) | 16 (≈ 33.3 µg/mL) | 1 (≈ 2.08 µg/mL)
N=C(N)NCCC[C@H](NC(=O)[C@@H](Cc1c[nH]c2ccccc12)NCc1cn(Cc2cc(Cn3cc(CN[C@H](Cc4c[nH]c5ccccc45)C(=O)N[C@@H](CCCNC(=N)N)C(=O)N[C@H](Cc4c[nH]c5ccccc45)C(=O)O)nn3)cc(Cn3cc(CN[C@H](Cc4c[nH]c5ccccc45)C(=O)N[C@@H](CCCNC(=N)N)C(=O)N[C@H](Cc4c[nH]c5ccccc45)C(=O)O)nn3)c2)nn1)C(=O)N[C@H](Cc1c[nH]c2ccccc12)C(=O)O (stereo in doubt) | 12 (≈ 24 µg/mL) | > 100 | > 100 | 12 (≈ 24 µg/mL) | 3 (≈ 5.99 µg/mL)
O=C(O)c1cn(C2CC2)c2cc(N3CCNCC3)c(F)cc2c1=O [CIPROFLOXACIN] | 12 (≈ 3.98 µg/mL) | 12 (≈ 3.98 µg/mL) | 24 (≈ 7.95 µg/mL) | 1.5 (≈ 0.497 µg/mL) | 24 (≈ 7.95 µg/mL)
H-RWRWRW-NH2 | 5.3 | 11 | 21 | 21 | 1.3
